Experimental data published in the supplement of paper PMC11061612.

Tests used:
Experiment in all cases: Bliss excess, mean over the matrix (fraction); higher = more synergy
[1] = system: NCI-H358 (Lung Adenocarcinoma)
In short: (§1)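 After 24 hours at 37°C and 5% CO2 in 1536-well plates, cells in DMEM/F12 or RPMI plus 10% FBS received two-drug dose matrices for 72 hours. Viability came from CellTiter-Glo 2.0 luminescence and was scaled as inhibition, anchored at 0 by vehicle wells and at 1 by blank wells. Combination Emax is taken as the second-highest inhibition in the matrix, and Bliss excess as the observed combination effect less EA + EB − EA·EB, with EA and EB the single-agent effects.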

[2] = system: HSC-4 (Oral Cavity Carcinoma)
In short: as §1

[3] = system: NEC8 (Other Solid Carcinomas)
In short: as §1

[4] = system: SCC-15 (Oral Cavity Carcinoma)
In short: as §1

[5] = system: UACC-62 (Melanoma)
In short: as §1

[6] = system: NB69 (Neuroblastoma)
In short: as §1

[7] = system: ACHN (Kidney Carcinoma)
In short: as §1

[8] = system: C-4-I (Cervical Carcinoma)
In short: as §1

[9] = system: RF-48 (B-Cell Non-Hodgkin's Lymphoma)
In short: as §1

[10] = system: SW13 (Other Solid Carcinomas)
In short: as §1

[11] = system: PANC-04-03 (Pancreatic Carcinoma)
In short: as §1

[12] = system: HGC-27 (Gastric Carcinoma)
In short: as §1

[13] = system: TE-1 (Esophageal Squamous Cell Carcinoma)
In short: as §1

[14] = system: OVCAR-4 (Ovarian Carcinoma)
In short: as §1

[15] = system: Ca9-22 (Head and Neck Carcinoma)
In short: as §1

[16] = system: SU8686 (Pancreatic Carcinoma)
In short: as §1

[17] = system: OE19 (Esophageal Adenocarcinoma)
In short: as §1

[18] = system: NCI-H1915 (Non-Small Cell Lung Carcinoma)
In short: as §1

[19] = system: TK10 (Kidney Carcinoma)
In short: as §1

[20] = system: AMO-1 (Plasma Cell Myeloma)
In short: as §1

SMILES	Bliss excess [1]	Bliss excess [2]	Bliss excess [3]	Bliss excess [4]	Bliss excess [5]	Bliss excess [6]	Bliss excess [7]	Bliss excess [8]	Bliss excess [9]	Bliss excess [10]	Bliss excess [11]	Bliss excess [12]	Bliss excess [13]	Bliss excess [14]	Bliss excess [15]	Bliss excess [16]	Bliss excess [17]	Bliss excess [18]	Bliss excess [19]	Bliss excess [20]
CN(CCO)CC[C@H](CSc1ccccc1)Nc1ccc(S(=O)(=O)NC(=O)c2ccc(N3CCC([C@@H](O)c4ccccc4-c4ccc(Cl)cc4)CC3)cc2)cc1S(=O)(=O)C(F)(F)F [AZD4320] + CN(C)CCCOc1ccc(-c2ccc3ncc4c(c3c2)n(C2CCOCC2)c(=O)n4C)cn1 [AZD0156] (first compound max 1 µM, 7x7, partner max 1 µM)	-0.0101	-0.0579	-0.0167	-0.0538	-0.0368	-0.12	-0.0045	-0.0024	-0.0469	-0.019	-0.0652	-0.064	-0.033	-0.0155	-0.0338	-0.0404	-0.086	0.0196	-0.0373	-0.0217
COc1nnc2ccc(N3CCC(c4ccc(OCCN5CCN(C)C(=O)[C@H]5C)cc4)CC3)nn12 [AZD5153] + C=CCn1c(=O)c2cnc(Nc3ccc(N4CCN(C)CC4)cc3)nc2n1-c1cccc(C(C)(C)O)n1 [AZD1775] (first compound max 1 µM, partner max 1 µM)	-0.113	-0.0852	-0.0352	-0.0427	-0.0529	-0.0206	-0.0396	-0.109	-0.012	-0.0336	-0.106	-0.0229	-0.0357	-0.0935	-0.0453	-0.0147	-0.0441	-0.0565	-0.0831	-0.0881
COc1nnc2ccc(N3CCC(c4ccc(OCCN5CCN(C)C(=O)[C@H]5C)cc4)CC3)nn12 [AZD5153] + CC1(C)CCC(CN2CCN(c3ccc(C(=O)NS(=O)(=O)c4ccc(NCC5CCOCC5)c([N+](=O)[O-])c4)c(Oc4cnc5[nH]ccc5c4)c3)CC2)=C(c2ccc(Cl)cc2)C1 [Venetoclax] (first compound max 1 µM, 7x7, partner max 1 µM)	-0.049	-0.0705	-0.0661	-0.0681	-0.0271	0.0488	-0.0499	-0.05	-0.0312	-0.0458	-0.0341	-0.0808	-0.0383	-0.0104	-0.0321	-0.0501	0.0029	-0.0659	-0.0549	-0.0483
COc1nnc2ccc(N3CCC(c4ccc(OCCN5CCN(C)C(=O)[C@H]5C)cc4)CC3)nn12 [AZD5153] + CCN(CCO)CCCOc1ccc2c(Nc3cc(CC(=O)Nc4cccc(F)c4)[nH]n3)ncnc2c1 [AZD2811] (first compound max 1 µM, 7x7, partner max 1 µM)	-0.0479	-0.129	-0.0072	-0.0546	-0.0564	-0.0087	0.0017	0.0165	0.0065	-0.0368	-0.0667	-0.102	0.0103	-0.0568	-0.023	-0.0309	-0.0026	-0.0764	-0.0717	-0.0109
COc1nnc2ccc(N3CCC(c4ccc(OCCN5CCN(C)C(=O)[C@H]5C)cc4)CC3)nn12 [AZD5153] + C[C@@H]1COCCN1C2=NC(=NC(=C2)C3(CC3)[S@](=N)(=O)C)C4=C5C=CNC5=NC=C4 [AZD6738] (first compound max 1 µM, 7x7, partner max 10 µM)	-0.0855	-0.0215	0.0124	0.0084	0.0179	0.008	0.0379	0.0654	-0.0851	-0.022	-0.008	-0.0376	0.019	0.0127	-0.0481	-0.0329	-0.0416	-0.0054	-0.0406	-0.0361
COc1nnc2ccc(N3CCC(c4ccc(OCCN5CCN(C)C(=O)[C@H]5C)cc4)CC3)nn12 [AZD5153] + Cc1c2c(nn1C)CSCc1cc(n(C)n1)CSc1cc(c3ccccc3c1)OCCCc1c(C(=O)O)n(C)c3c-2c(Cl)ccc13 [AZD5991] (first compound max 1 µM, 7x7, partner max 1 µM)	-0.059	-0.101	0.0672	-0.0167	0.0084	-0.0334	-0.0565	0.0867	-0.0863	0.0258	-0.0038	-0.0471	-0.0166	-0.0152	0.0049	-0.0221	-0.0322	-0.0343	-0.0459	-0.0514
COc1nnc2ccc(N3CCC(c4ccc(OCCN5CCN(C)C(=O)[C@H]5C)cc4)CC3)nn12 [AZD5153] + Cn1cnc2c(F)c(Nc3ccc(Br)cc3Cl)c(C(=O)NOCCO)cc21 [Selumetinib] (first compound max 1 µM, 7x7, partner max 10 µM)	-0.0409	-0.0246	0.0165	0.032	0.0397	0.0191	0.0033	0.0398	-0.0939	0.0304	-0.0358	-0.083	0.0111	-0.0214	0.0592	-0.0166	-0.02	-0.0186	0.0204	-0.0076
Cc1c2c(nn1C)CSCc1cc(n(C)n1)CSc1cc(c3ccccc3c1)OCCCc1c(C(=O)O)n(C)c3c-2c(Cl)ccc13 [AZD5991] + C1CN(CCC1(C(=O)N[C@@H](CCO)C2=CC=C(C=C2)Cl)N)C3=NC=NC4=C3C=CN4 [Capivasertib] (first compound max 1 µM, 7x7, partner max 3 µM)	-0.0179	-0.0327	0.0812	0.0106	0.0121	-0.0071	0.0107	0.0117	0.0285	0.0419	-0.0094	0.0232	-0.0107	-0.0114	-0.0261	-0.0177	-0.0273	0.0103	-0.031	0.0178
Cc1c2c(nn1C)CSCc1cc(n(C)n1)CSc1cc(c3ccccc3c1)OCCCc1c(C(=O)O)n(C)c3c-2c(Cl)ccc13 [AZD5991] + CCN(CCO)CCCOc1ccc2c(Nc3cc(CC(=O)Nc4cccc(F)c4)[nH]n3)ncnc2c1 [AZD2811] (first compound max 1 µM, 7x7, partner max 1 µM)	-0.0392	-0.0283	0.0348	-0.0061	-0.0113	0.0311	0.0541	0.0332	0.0211	0.0895	-0.0143	0.0635	0.0705	0.0989	0.0626	-0.0135	-0.0098	0.0197	0.0117	0.0145
Cc1c2c(nn1C)CSCc1cc(n(C)n1)CSc1cc(c3ccccc3c1)OCCCc1c(C(=O)O)n(C)c3c-2c(Cl)ccc13 [AZD5991] + CN(C)CCCOc1ccc(-c2ccc3ncc4c(c3c2)n(C2CCOCC2)c(=O)n4C)cn1 [AZD0156] (first compound max 1 µM, 7x7, partner max 1 µM)	0.0096	-0.0955	0.0201	-0.0048	-0.0516	-0.136	0.0086	0.0063	-0.0117	-0.0092	0.0116	0.0458	-0.0702	0.0076	-0.0131	-0.0413	-0.0242	-0.0186	-0.0089	0.0058
Cc1c2c(nn1C)CSCc1cc(n(C)n1)CSc1cc(c3ccccc3c1)OCCCc1c(C(=O)O)n(C)c3c-2c(Cl)ccc13 [AZD5991] + C[C@@H](Nc1cc(F)cc(F)c1)c1cc(C(=O)N(C)C)cc2c(=O)cc(N3CCOCC3)oc12 [AZD8186] (first compound max 1 µM, 7x7, partner max 3 µM)	-0.0519	-0.063	0.008	0.0139	0.036	-0.0207	0.0607	0.0655	-0.0401	0.0293	-0.0045	0.0246	-0.0186	0.0433	-0.012	-0.0002	0.043	-0.0265	-0.0736	0.0522
Cc1c2c(nn1C)CSCc1cc(n(C)n1)CSc1cc(c3ccccc3c1)OCCCc1c(C(=O)O)n(C)c3c-2c(Cl)ccc13 [AZD5991] + Cc1cc2ncnn2cc1Nc1ncc2c(n1)n(C1CCOCC1)c(=O)n2C [AZD7648] (first compound max 1 µM, 7x7, partner max 10 µM)	-0.0836	-0.0702	-0.0056	-0.042	-0.0534	-0.0009	-0.0271	-0.0135	-0.0115	0.0165	-0.0242	-0.0131	-0.0494	-0.0073	0.0048	-0.0366	-0.0645	-0.0226	-0.0327	-0.0215
Cc1c2c(nn1C)CSCc1cc(n(C)n1)CSc1cc(c3ccccc3c1)OCCCc1c(C(=O)O)n(C)c3c-2c(Cl)ccc13 [AZD5991] + Cn1cnc2c(F)c(Nc3ccc(Br)cc3Cl)c(C(=O)NOCCO)cc21 [Selumetinib] (first compound max 1 µM, 7x7, partner max 3 µM)	0.0531	-0.0175	0.0374	0.0241	-0.0465	0.0377	0.0314	0.132	-0.0095	-0.0006	0.0201	0.033	0.019	0.0473	0.0185	0.0084	0.0051	0.0375	0.0135	0.0129
C[C@@H]1COCCN1c1cc(C2([S@](C)(=N)=O)CC2)nc(-c2ccnc3[nH]ccc23)n1 [AZD6738] + O=C(c1cc(Cc2n[nH]c(=O)c3ccccc23)ccc1F)N1CCN(C(=O)C2CC2)CC1 [Olaparib] (first compound max 10 µM, 7x7, partner max 10 µM)	-0.0276	-0.0172	0.0254	0.0011	0.0235	0.045	-0.0791	-0.0144	-0.0422	0.0093	0.0066	0.0231	-0.0461	0.0035	-0.042	-0.0231	-0.133	-0.0182	-0.0735	-0.0316
